Bounds are passed on as bounds.

The target of the assay is T1, human MR (Homo sapiens, UniProt P08235).
T1 construct: The full length human MR gene is cloned from a human kidney or human brain cDNA library; made in house; host or cells: Sf9 insect cells (baculovirus, pAcHLT transfer vector)
T1 sequence (P08235 1-984): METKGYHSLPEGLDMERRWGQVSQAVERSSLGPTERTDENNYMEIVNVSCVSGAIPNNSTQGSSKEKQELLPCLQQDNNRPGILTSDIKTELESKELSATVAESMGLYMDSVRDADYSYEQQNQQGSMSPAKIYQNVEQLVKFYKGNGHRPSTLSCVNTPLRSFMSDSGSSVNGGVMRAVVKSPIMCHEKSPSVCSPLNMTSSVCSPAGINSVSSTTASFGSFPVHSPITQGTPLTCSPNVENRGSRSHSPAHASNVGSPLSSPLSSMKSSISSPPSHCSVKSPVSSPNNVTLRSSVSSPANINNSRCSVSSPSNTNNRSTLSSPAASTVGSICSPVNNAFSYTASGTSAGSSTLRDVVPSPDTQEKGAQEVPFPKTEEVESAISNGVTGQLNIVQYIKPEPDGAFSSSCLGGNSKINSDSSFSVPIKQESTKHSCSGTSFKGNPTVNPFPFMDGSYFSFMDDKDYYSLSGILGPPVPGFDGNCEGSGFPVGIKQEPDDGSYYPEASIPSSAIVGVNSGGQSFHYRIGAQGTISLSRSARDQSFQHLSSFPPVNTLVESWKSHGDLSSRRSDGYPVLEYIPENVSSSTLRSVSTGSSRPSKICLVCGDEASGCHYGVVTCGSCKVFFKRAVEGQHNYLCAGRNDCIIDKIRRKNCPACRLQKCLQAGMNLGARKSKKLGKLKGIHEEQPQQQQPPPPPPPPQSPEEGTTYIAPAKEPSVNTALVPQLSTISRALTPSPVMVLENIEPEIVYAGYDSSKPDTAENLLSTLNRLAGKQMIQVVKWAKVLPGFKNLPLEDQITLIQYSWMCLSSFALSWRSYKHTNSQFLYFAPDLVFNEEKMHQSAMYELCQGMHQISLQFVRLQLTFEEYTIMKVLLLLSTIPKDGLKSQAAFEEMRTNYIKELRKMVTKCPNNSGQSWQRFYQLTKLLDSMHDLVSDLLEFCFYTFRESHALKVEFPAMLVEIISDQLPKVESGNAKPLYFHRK
As to the kind of experiment: Mineralocorticoid Receptor Binding Assay ([3H]-aldosterone displacement). To be noted: full length human MR expressed in Sf9 cells, 0.5 nM [3H]-aldosterone. Put shortly: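 Full-length human MR expressed in Sf9 cells; lysate (20-25 μg protein) incubated with 0.5 nM [3H]-aldosterone and test compound in molybdate/Tris/phosphate/glycerol buffer pH 7.5, 16 h at 4 °C. Bound ligand measured by filtration and scintillation counting; IC50 converted to Ki via Cheng-Prusoff.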
On to `COc1ccc(-c2noc(CN3C(=O)C(c4cc(C)c(O)c(C)c4)(c4cc(C)c(O)c(C)c4)c4ccccc43)n2)cc1` [Example 142, 3,3-Bis-(4-hydroxy-3,5-dimethyl-phenyl)-1-[3-(4-methoxy-phenyl)-[1,2,4]oxadiazol-5-ylmethyl]-1,3-dihydro-indol-2-one], for which the Ki was ≤ 500 nM.

Turning to `Cc1cc(C2(c3cc(C)c(O)c(C)c3)C(=O)N(Cc3ccc([N+](=O)[O-])o3)c3ccccc32)cc(C)c1O` [Example 73, 3,3-Bis-(4-hydroxy-3,5-dimethyl-phenyl)-1-(5-nitro-furan-2-ylmethyl)-1,3-dihydro-indol-2-one], the Ki was ≤ 500 nM.

Consider `Cc1cc(C2(c3cc(C)c(O)c(C)c3)C(=O)N(Cc3ccccc3Br)c3ccccc32)cc(C)c1O` [Example 63, 1-(2-Bromo-benzyl)-3,3-bis-(4-hydroxy-3,5-dimethyl-phenyl)-1,3-dihydro-indol-2-one], for which the Ki was ≤ 500 nM.

As for `Cc1cc(C2(c3cc(C)c(O)c(C)c3)C(=O)N(Cc3c(C)noc3C)c3ccccc32)cc(C)c1O` [Example 9, 1-(3,5-Dimethyl-isoxazol-4-ylmethyl)-3,3-bis-(4-hydroxy-3,5-dimethyl-phenyl)-1,3-dihydro-indol-2-one], the Ki is ≤ 500 nM.

For `Cc1cc(C2(c3cc(C)c(O)c(C)c3)C(=O)N(Cc3ccc(Cl)cc3F)c3ccccc32)cc(C)c1O` [Example 83, 1-(4-Chloro-2-fluoro-benzyl)-3,3-bis-(4-hydroxy-3,5-dimethyl-phenyl)-1,3-dihydro-indol-2-one], the Ki is ≤ 500 nM.

With `CCc1nc(CN2C(=O)C(c3cc(C)c(O)c(C)c3)(c3cc(C)c(O)c(C)c3)c3ccccc32)cs1` [Example 90, 1-(2-Ethyl-thiazol-4-ylmethyl)-3,3-bis-(4-hydroxy-3,5-dimethyl-phenyl)-1,3-dihydro-indol-2-one], the Ki was ≤ 500 nM.

Regarding `Cc1cc(C2(c3cc(C)c(O)c(C)c3)C(=O)N(Cc3ccc4ccccc4n3)c3ccccc32)cc(C)c1O` [Example 97, 3,3-Bis-(4-hydroxy-3,5-dimethyl-phenyl)-1-quinolin-2-ylmethyl-1,3-dihydro-indol-2-one], the Ki is ≤ 500 nM.

As to `Cc1cc(C2(c3cc(C)c(O)c(C)c3)C(=O)N(Cc3cccc(Br)c3)c3ccccc32)cc(C)c1O` [Example 64, 1-(3-Bromo-benzyl)-3,3-bis-(4-hydroxy-3,5-dimethyl-phenyl)-1,3-dihydro-indol-2-one], the Ki was ≤ 500 nM.

Regarding `Cc1cc(C2(c3cc(C)c(O)c(C)c3)C(=O)N(Cc3cccc(F)c3F)c3ccccc32)cc(C)c1O` [Example 66, 1-(2,3-Difluoro-benzyl)-3,3-bis-(4-hydroxy-3,5-dimethyl-phenyl)-1,3-dihydro-indol-2-one], the Ki is ≤ 500 nM.

Regarding `Cc1cc(C2(c3cc(C)c(O)c(C)c3)C(=O)N(Cc3c(F)cccc3Cl)c3ccccc32)cc(C)c1O` [Example 76, 1-(2-Chloro-6-fluoro-benzyl)-3,3-bis-(4-hydroxy-3,5-dimethyl-phenyl)-1,3-dihydro-indol-2-one], the Ki is ≤ 500 nM.

`Cc1cc(C2(c3cc(C)c(O)c(C)c3)C(=O)N(Cc3ccccc3Cl)c3ccccc32)cc(C)c1N` (stereo not shown) [Example 35, 3-(4-Amino-3,5-dimethyl-phenyl)-1-(2-chloro-benzyl)-3-(4-hydroxy-3,5-dimethyl-phenyl)-1,3-dihydro-indol-2-one]: the Ki is ≤ 500 nM.

As to `CCc1cccc2c1N(Cc1ccccc1Cl)C(=O)C2(c1cc(C)c(O)c(C)c1)c1cc(C)c(O)c(C)c1` [Example 25, 1-(2-Chloro-benzyl)-7-ethyl-3,3-bis-(4-hydroxy-3,5-dimethyl-phenyl)-1,3-dihydro-indol-2-one], the Ki was ≤ 500 nM.

Consider `COc1ccc(-c2nc(CN3C(=O)C(c4cc(C)c(O)c(C)c4)(c4cc(C)c(O)c(C)c4)c4ccccc43)cs2)cc1` [Example 94, 3,3-Bis-(4-hydroxy-3,5-dimethyl-phenyl)-1-[2-(4-methoxy-phenyl)-thiazol-4-ylmethyl]-1,3-dihydro-indol-2-one], for which the Ki is ≤ 500 nM.

`Cc1cc(C2(c3cc(C)c(O)c(C)c3)C(=O)N(Cc3csc(-c4ccccc4)n3)c3ccccc32)cc(C)c1O` [Example 91, 3,3-Bis-(4-hydroxy-3,5-dimethyl-phenyl)-1-(2-phenyl-thiazol-4-ylmethyl)-1,3-dihydro-indol-2-one]: the Ki was ≤ 500 nM.

Turning to `Cc1cccc(N2C(=O)C(c3cc(C)c(O)c(C)c3)(c3cc(C)c(O)c(C)c3)c3ccccc32)c1` [Example 133, 3,3-Bis-(4-hydroxy-3,5-dimethyl-phenyl)-1-m-tolyl-1,3-dihydro-indol-2-one], the Ki is ≤ 500 nM.

As to `Cc1cc(C2(c3cc(C)c(O)c(C)c3)C(=O)N(Cc3ccccc3OC(F)F)c3ccccc32)cc(C)c1O` [Example 79, 1-(2-Difluoromethoxy-benzyl)-3,3-bis-(4-hydroxy-3,5-dimethyl-phenyl)-1,3-dihydro-indol-2-one], the Ki was ≤ 500 nM.

For `Cc1cc(C2(c3cc(C)c(O)c(C)c3)C(=O)N(Cc3cccc([N+](=O)[O-])c3)c3ccccc32)cc(C)c1O` [Example 85, 3,3-Bis-(4-hydroxy-3,5-dimethyl-phenyl)-1-(3-nitro-benzyl)-1,3-dihydro-indol-2-one], the Ki is ≤ 500 nM.

`COc1ccc(-c2nc(CN3C(=O)C(c4cc(C)c(O)c(C)c4)(c4cc(C)c(O)c(C)c4)c4ccccc43)no2)cc1` [Example 99, 3,3-Bis-(4-hydroxy-3,5-dimethyl-phenyl)-1-[5-(4-methoxy-phenyl)-[1,2,4]oxadiazol-3-ylmethyl]-1,3-dihydro-indol-2-one]: the Ki was ≤ 500 nM.

In the case of `Cc1ccc2c(c1)C(c1cc(C)c(O)c(C)c1)(c1cc(C)c(O)c(C)c1)C(=O)N2Cc1ccccc1C#N` [Example 23, 2-[3,3-Bis-(4-hydroxy-3,5-dimethyl-phenyl)-5-methyl-2-oxo-2,3-dihydro-indol-1-ylmethyl]-benzonitrile], the inhibition constant (Ki) was ≤ 500 nM.

For `Cc1ccccc1CN1C(=O)C(c2cc(C)c(O)c(C)c2)(c2cc(C)c(O)c(C)c2)c2cc(Br)ccc21` [Example 20, 5-Bromo-3,3-bis-(4-hydroxy-3,5-dimethyl-phenyl)-1-(2-methyl-benzyl)-1,3-dihydro-indol-2-one], the Ki is ≤ 500 nM.

With `Cc1cc(C2(c3cc(C)c(O)c(C)c3)C(=O)N(Cc3ccc(F)cc3F)c3ccccc32)cc(C)c1O` [Example 43, 1-(2,4-Difluoro-benzyl)-3,3-bis-(4-hydroxy-3,5-dimethyl-phenyl)-1,3-dihydro-indol-2-one], the Ki is ≤ 500 nM.

For the compound `Cc1cc(C2(c3cc(C)c(O)c(C)c3)C(=O)N(Cc3ccccc3Cl)c3ccccc32)cc(C)c1O` [Example 11, 1-(2-Chloro-benzyl)-3,3-bis-(4-hydroxy-3,5-dimethyl-phenyl)-1,3-dihydro-indol-2-one], the inhibition constant (Ki) is ≤ 500 nM.

For the compound `Cc1cc(C2(c3cc(C)c(O)c(C)c3)C(=O)N(c3ccccc3Cl)c3ccccc32)cc(C)c1O` [Example 129, 1-(2-Chloro-phenyl)-3,3-bis-(4-hydroxy-3,5-dimethyl-phenyl)-1,3-dihydro-indol-2-one], the Ki is ≤ 500 nM.

For the compound `Cc1cc(C2(c3cc(C)c(O)c(C)c3)C(=O)N(c3cccc(C(C)C)c3)c3ccccc32)cc(C)c1O` [Example 138, 3,3-Bis-(4-hydroxy-3,5-dimethyl-phenyl)-1-(3-isopropyl-phenyl)-1,3-dihydro-indol-2-one], the Ki is ≤ 500 nM.

As to `Cc1cc(C2(c3cc(C)c(O)c(C)c3)C(=O)N(Cc3c(Cl)cccc3Cl)c3ccccc32)cc(C)c1O` [Example 113, 1-(2,6-Dichloro-benzyl)-3,3-bis-(4-hydroxy-3,5-dimethyl-phenyl)-1,3-dihydro-indol-2-one], the inhibition constant (Ki) was ≤ 500 nM.

In the case of `Cc1cc(C2(c3cc(C)c(O)c(C)c3)C(=O)N(Cc3ccc(C(F)(F)F)cc3C(F)(F)F)c3ccccc32)cc(C)c1O` [Example 68, 1-(2,4-Bis-trifluoromethyl-benzyl)-3,3-bis-(4-hydroxy-3,5-dimethyl-phenyl)-1,3-dihydro-indol-2-one], the inhibition constant (Ki) was ≤ 500 nM.

Turning to `Cc1cc(C2(c3cc(C)c(O)c(C)c3)C(=O)N(Cc3ccc(Br)cc3)c3ccccc32)cc(C)c1O` [Example 58, 1-(4-Bromo-benzyl)-3,3-bis-(4-hydroxy-3,5-dimethyl-phenyl)-1,3-dihydro-indol-2-one], the inhibition constant (Ki) is ≤ 500 nM.

On to `Cc1cc(C2(c3cc(C)c(O)c(C)c3)C(=O)N(Cc3ccncc3)c3ccccc32)cc(C)c1O` [Example 111, 3,3-Bis-(4-hydroxy-3,5-dimethyl-phenyl)-1-pyridin-4-ylmethyl-1,3-dihydro-indol-2-one], for which the Ki was ≤ 500 nM.

These data come from patent US7250442B2, “Dihydroindol-2-one derivatives as steroid hormone nuclear receptor modulators” (Eli Lilly and Company, priority 2003, dated 2007).
